Experimental data published in patent US11491165B2 (Kinoxis Therapeutics Pty Ltd, priority 2016, dated 2022).

Columns and labels:
[1] = target: T1, oxytocin receptor (OXTR), hOTR (Homo sapiens, UniProt P30559); assay: IP1 accumulation assay, OTR-expressing HEK-293 cells (agonist and antagonist assessment); format: cell-based; settings: for Emax: HEK293, read-out: OXTR Emax (% OXT); for EC50 (OXTR agonist potency, mean ± s.d.) / EC50: agonist assessment; for EC50 (OXTR agonist potency, mean ± s.d.) / IC50: IP1; for EC50: IP1, 1 h; for OV function: ratio of OXTR functional potency to V1aR functional potency, 'OT only' = function at OXTR only; for IC50: antagonist assessment vs OT 30 nM (~EC70)
T1 construct: expressed in transfected cells
T1 sequence (P30559 1-389): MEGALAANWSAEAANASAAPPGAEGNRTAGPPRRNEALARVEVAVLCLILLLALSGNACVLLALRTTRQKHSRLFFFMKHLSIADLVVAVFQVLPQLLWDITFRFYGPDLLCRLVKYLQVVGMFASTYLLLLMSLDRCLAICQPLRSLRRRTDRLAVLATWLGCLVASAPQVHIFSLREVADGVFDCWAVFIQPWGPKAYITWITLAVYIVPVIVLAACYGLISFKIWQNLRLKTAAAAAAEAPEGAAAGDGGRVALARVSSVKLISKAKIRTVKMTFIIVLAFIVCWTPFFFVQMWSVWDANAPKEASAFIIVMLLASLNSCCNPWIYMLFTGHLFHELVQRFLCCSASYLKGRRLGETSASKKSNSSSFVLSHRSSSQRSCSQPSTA
Method: (§1) Human embryonic kidney cells (HEK-293) transfected to stably express untagged hOTR and V1aR using the Flp-In™ T-REx™ system (Life Technologies, Carlsbad, Calif. USA) were established as reported in Jorgensen et al., 2016 (the entire disclosure of which is hereby incorporated by reference). Cells were subsequently maintained in 10% DMEM containing hygromycin (80 μg/ml), penicillin (100 U/ml), streptomycin (0.1 mg/ml) and blasticidine S hydrochloride (15 μg/ml).
(§2) OTR or V1aR-expressing HEK-293 cells were seeded onto poly-L-lysine (100 μg/ml)-coated 384-well plates at a density of 8.75×10^3 cells per well. Cells were incubated in tetracycline (2 μg/mL) for 48 h to induce receptor expression. Intracellular IP1 levels induced by activation of the Gq protein coupled to the OTR and V1aR was indexed using the HTRF IP-One kit (CisBio International, Bedford, Mass., USA), according to manufacturer's protocol. For agonist assessment, cells were incubated with logarithmically-spaced concentrations of compounds (1 nM-100 μM) for 1 h prior to the addition of Ab-Cryptate and IP1-d2 for 1 h. The contents of each well were transferred to a white-walled proxy plate (Perkin Elmer) and fluorescence read using a Pherastar Microplate reader (BMG Labtech, Cary, N.C., USA). For antagonist assessment, cells were incubated an ˜EC70 concentration of OT (30 nM) or AVP (25 nM) mixed with compounds (1 nM-100 μM) or vehicle control for 1 h. IP1 levels in the presence of compounds and OT or AVP were expressed as a percentage of levels seen with OT or AVP in the presence of vehicle control. Concentration response curves for OT and AVP were determined after 5 min incubation in drug or vehicle, and the data fitted using GraphPad PRISM to a 4-parameter logistic equation of the form y=Min+(Max−Min)/(1+10^((logEC50−X)*n)) where X is drug concentration and n is the H-ill slope. Data represent the mean±s.d. of at least 3 independent experiments, each in duplicate.

[2] = target: T1, oxytocin receptor (OXTR), hOTR; assay: Competition radioligand binding, [3H]-oxytocin, OTR-expressing HEK293 membranes; settings: [3H]-oxytocin 10 nM, 90 min 4 °C
Method: as §1
(§3) To induce receptor expression, cells were incubated with tetracycline (2 μg/mL) for 48 h. PBS with 5 mM EDTA (pH 7.4) was used to detach OTR and V1aR-expressing HEK293 cells from culture flasks. Harvested cells were centrifuged at 1200 g for 5 min and were resuspended in homogenization buffer (50 mM HEPES, 5 mM EDTA, 5 mM MgCl2; pH 7.4) prior to homogenization using an Ultra-Turrax homogeniser (IKA, Wilmington, N.C., USA). Homogenates were centrifuged three times for 30 min at 48.000 g, 4° C. for 30 min and membrane pellets resuspended in 50 mM Tris HCl, 5 mM MgCl2 (pH 7.4). A bicinchoninic acid assay was used according to the manufacturer's protocol (Bio-Rad, Hercules. Calif., USA) to measure final protein concentration. Membranes were stored at −80° C. until use in competition radioligand binding studies.
(§4) Reactions were incubated for 90 min at 4° C. to reach equilibrium, and terminated by rapid filtration over glass fibre filters (Whatman GF/A […]; Millipore, Darmstadt, Germany), and washing with ice-cold reaction buffer. Filters were dried, then incubated with Microscint 0 (Perkin Elmer) for 30 min before radioactivity was detected with a Microbeta2 2450 microplate-reader (Perkin Elmer). […] Specific binding in the presence of compounds was expressed as a percentage of specific binding in the presence of vehicle control. A sum-of-squares F-test was used to compare the goodness of fit of one-site, two-site and sigmoidal with variable hill slope binding models, and to calculate Ki's using Graphpad Prism (Graphpad Software, La Jolla, Calif., USA).

[3] = target: T2, vasopressin 1a receptor (V1aR) (Homo sapiens, UniProt P37288); assay: Competition radioligand binding, [3H]-vasopressin, V1aR-expressing HEK293 membranes; settings: [3H]-vasopressin 2 nM, 90 min 4 °C
T2 construct: expressed in transfected cells
Method: as §1, §3, §4

[4] = target: T2, vasopressin 1a receptor (V1aR); assay: IP1 accumulation assay, V1aR-expressing HEK-293 cells (agonist and antagonist assessment); format: cell-based; settings: for EC50: agonist assessment, IP1, 1 h; for IC50: antagonist assessment vs AVP 25 nM (~EC70), IP1
Method: Cells were subsequently maintained in 10% DMEM containing hygromycin (80 μg/ml), penicillin (100 U/ml), streptomycin (0.1 mg/ml) and blasticidine S hydrochloride (15 μg/ml).
as §2, with “Cells” for “OTR or V1aR-expressing HEK-293 cells were seeded onto poly-L-lysine (100 μg/ml)-coated 384-well plates at a density of 8.75×10^3 cells per well. Cells”, “For antagonist assessment, cells were incubated an ˜EC70 concentration of OT (30 nM) or AVP (25 nM) mixed with compounds (1 nM-100 μM) or vehicle control for 1 h.” left out

T2 sequence (P37288 whole entry): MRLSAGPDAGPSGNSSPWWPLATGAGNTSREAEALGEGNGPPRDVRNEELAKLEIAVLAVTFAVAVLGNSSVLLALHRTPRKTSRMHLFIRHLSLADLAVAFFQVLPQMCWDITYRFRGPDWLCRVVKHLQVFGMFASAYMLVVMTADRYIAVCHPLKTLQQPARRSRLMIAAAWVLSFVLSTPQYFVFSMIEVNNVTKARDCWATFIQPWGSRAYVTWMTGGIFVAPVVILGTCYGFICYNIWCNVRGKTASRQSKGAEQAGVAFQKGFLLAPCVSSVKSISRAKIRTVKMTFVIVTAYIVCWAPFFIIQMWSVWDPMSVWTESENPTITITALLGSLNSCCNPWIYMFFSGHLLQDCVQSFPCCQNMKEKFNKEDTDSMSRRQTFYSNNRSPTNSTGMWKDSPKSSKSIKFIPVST

Compound	melting point	Emax [1] [%]	EC50 (OXTR agonist potency, mean ± s.d.) [1] [µM]	EC50 [1] [µM]	Ki [2] [µM]	Ki [3] [µM]	EC50 [4] [µM]	IC50 [4] [µM]	OV function [1]	IC50 [1] [µM]
Cn1ncc2c1Nc1ccccc1N(C(=O)c1ccc(C(F)(F)F)cc1)C2 [WJ0677, (1-Methyl-4,10-dihydrobenzo[b]pyrazolo[3,4-e][1,4]diazepin-5 (1H)-yl)(4-(trifluoromethyl)phenyl)methanone]	204 to 206 °C	7.72	0.1933 ± 0.0113	0.179 ± 0.0378	0.56 ± 0.111	0.0969 ± 0.0335	> 10	> 10	–	–
Cn1ncc2c1Nc1ccccc1N(C(=O)C1CCCC1)C2 [CAS (KA), cyclopentyl(1-methyl-4,10-dihydrobenzo[b]pyrazolo[3,4-e][1,4]diazepin-5 (1H)-yl)methanone]	> 300 °C	10	–	3.39 ± 0.448	> 10	0.553 ± 0.067	> 10	> 10	<0.33	–
Cn1ncc2c1Nc1ccccc1N(C(=O)C13CC4CC(F)(CC(F)(C4)C1)C3)C2 [WJ0807dF, ((1r,3R,5S,7r)-3,5-Difluoroadamantan-1-yl)(1-methyl-4,10-dihydrobenzo[b]pyrazolo[3,4-e][1,4]diazepin-5 (1H)-yl)methanone]	262 to 264 °C (dec.)	26.7	0.6677	4.15 ± 1.34	> 10	2.21	> 10	> 10	–	–
Cn1ncc2c1Nc1ccccc1N(C(=O)c1cccnc1)C2 [WJ0753, (1-Methyl-4,10-dihydrobenzo[b]pyrazolo[3,4-e][1,4]diazepin-5 (1H)-yl)(pyridin-3-yl)methanone]	247 to 249 °C (dec.)	9.67	0.2421 ± 0.0217	3.53 ± 0.634	> 10	0.353	> 10	> 10	–	> 10
Cn1ncc2c1Nc1ccccc1N(S(=O)(=O)c1ccc(C(F)(F)F)cc1)C2 [WJ0639, 1-Methyl-5-((4-(trifluoromethyl)phenyl)sulfonyl)-1,4,5,10-tetrahydrobenzo[b]pyrazolo[3,4-e][1,4]diazepine]	203 to 205 °C	–	–	> 10	> 10	> 10	> 10	> 10	–	> 10
Cn1ncc2c1Nc1ccccc1N(Cc1cc(O)cc(O)c1)C2 [WJ0627, 5-((1-Methyl-4,10-dihydrobenzo[b]pyrazolo[3,4-e][1,4]diazepin-5(1H)-yl)methyl)benzene-1,3-diol]	236 to 238 °C	–	–	> 10	> 10	> 10	> 10	> 10	–	> 10
Cn1ncc2c1Nc1ccccc1N(C(=O)c1ccncc1)C2 [WJ0757, (1-Methyl-4,10-dihydrobenzo[b]pyrazolo[3,4-e][1,4]diazepin-5 (1H)-yl)(pyridin-4-yl)methanone]	267 to 269 °C (dec.)	–	–	> 10	> 10	0.751 ± 0.197	> 10	> 10	–	> 10
Cn1ncc2c1Nc1ccccc1N(C(=O)c1ccccn1)C2 [WJ0759, (1-Methyl-4,10-dihydrobenzo[b]pyrazolo[3,4-e][1,4]diazepin-5 (1H)-yl)(pyridin-2-yl)methanone]	269 to 271 °C (dec.)	–	–	> 10	> 10	1.12 ± 0.26	> 10	> 10	–	> 10
Cc1ccc(S(=O)(=O)N2Cc3cnn(C)c3Nc3ccccc32)cc1 [WJ0641, 1-Methyl-5-tosyl-1,4,5,10-tetrahydrobenzo[b]pyrazolo[3,4-e][1,4]diazepine]	184 to 186 °C	–	–	> 10	> 10	> 10	> 10	> 10	–	> 10
Cn1ncc2c1Nc1ccccc1N(C(=O)c1ccccc1)C2 [WJ0685, (1-Methyl-4,10-dihydrobenzo[b]pyrazolo[3,4-e][1,4]diazepin-5 (1H)-yl)(phenyl)methanone]	> 300 °C	11.9	0.2977 ± 0.0713	0.847 ± 0.244	> 10	0.0816 ± 0.0126	> 10	> 10	–	–
COc1cc(OC)cc(C(=O)N2Cc3cnn(C)c3Nc3ccccc32)c1 [WJ0629, (3,5-Dimethoxyphenyl)(1-methyl-4,10-dihydrobenzo[b]pyrazolo[3,4-e][1,4]diazepin-5 (1H)-yl)methanone]	279 to 281 °C (dec.)	–	–	> 10	0.316 ± 0.0792	0.0129 ± 0.0015	> 10	0.0948 ± 0.0077	18.63	1.77
Cn1ncc2c1Nc1ccccc1N(C(=O)c1ccc(OCc3ccccc3)cc1)C2 [BzE, (4-(benzyloxy)phenyl)(1-methyl-4,10-dihydrobenzo[b]pyrazolo[3,4-e][1,4]diazepin-5 (1H)-yl)methanone]	207 to 209 °C	–	–	> 10	0.176 ± 0.041	0.035 ± 0.005	> 10	1.59 ± 0.486	0.11	0.179
